# Experimental data published in patent US20120251551A1, “Substituted (Heteroarylmethyl)thiohydantoins” (BAYER PHARMA AKTIENGESELLSCHAFT, priority 2009, published 2012).
# Biological target: T1, wild-type human androgen receptor (Homo sapiens, UniProt P10275)
# T1 construct: expressed in transfected cells
# T1 sequence (P10275 1-920): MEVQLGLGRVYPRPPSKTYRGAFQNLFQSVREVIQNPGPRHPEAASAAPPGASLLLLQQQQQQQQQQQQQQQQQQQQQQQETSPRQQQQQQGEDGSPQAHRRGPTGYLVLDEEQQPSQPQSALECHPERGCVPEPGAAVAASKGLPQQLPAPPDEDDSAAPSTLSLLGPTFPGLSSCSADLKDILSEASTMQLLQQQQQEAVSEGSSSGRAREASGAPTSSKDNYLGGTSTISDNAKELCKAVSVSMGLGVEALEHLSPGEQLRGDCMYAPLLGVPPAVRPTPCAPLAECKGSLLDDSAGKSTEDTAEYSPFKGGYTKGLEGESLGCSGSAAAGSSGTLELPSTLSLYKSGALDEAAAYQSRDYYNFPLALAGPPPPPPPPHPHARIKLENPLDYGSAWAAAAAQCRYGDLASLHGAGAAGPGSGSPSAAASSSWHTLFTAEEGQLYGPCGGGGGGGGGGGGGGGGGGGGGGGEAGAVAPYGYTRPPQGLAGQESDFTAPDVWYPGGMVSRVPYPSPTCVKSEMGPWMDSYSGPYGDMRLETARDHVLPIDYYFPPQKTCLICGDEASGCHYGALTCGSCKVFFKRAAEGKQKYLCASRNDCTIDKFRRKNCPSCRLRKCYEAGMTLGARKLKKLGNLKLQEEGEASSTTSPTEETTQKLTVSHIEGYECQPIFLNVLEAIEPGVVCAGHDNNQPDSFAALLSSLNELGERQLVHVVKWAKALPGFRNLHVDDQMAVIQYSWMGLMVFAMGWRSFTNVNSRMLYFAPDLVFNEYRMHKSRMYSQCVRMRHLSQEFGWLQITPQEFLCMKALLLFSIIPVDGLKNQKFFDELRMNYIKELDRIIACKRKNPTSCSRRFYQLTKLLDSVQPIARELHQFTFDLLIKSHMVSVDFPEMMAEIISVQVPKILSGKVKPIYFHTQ
# Experiment: Cell-based transactivation assay for wild-type human androgen receptor (PC-3 cells, MMTV-luciferase reporter)
# Experimental: Cell-Based Transactivation Assay for Wild-Type Human Androgen Receptor
# PC-3 cells (Kaighn et al., Invest. Urol. 17:16-23, 1979) stably transfected with the human androgen receptor (Swiss-Prot Acc. No. P10275, Entry Version 159, Sequence Version 2) and a reporter plasmid based on pGL4.14 (#E6691, Promega Corporation, Madison, Wis., USA) containing the MMTV promoter (Cato et al., EMBO J. 6:363-8, 1987) were used. They were grown in 5% charcoal-stripped medium and seeded at a concentration of 1000 cells per well in a 384-well plate. For determination of antagonistic activity, the plate additionally contained the compound to be tested at a concentration range varying from 5.12×10^−12 to 1×10^−5 M. The assay was performed in presence of 1×10^−10 R1881 (also known as methyltrienolone). After overnight incubation at 37° C. in a 5% CO2 atmosphere, 15 μl of Steady Glo Lysis and Detection reagent (Steady Glo Luciferase assay system E2550 from Promega Corporation. Madison, Wis., USA) were added. IC50 was calculated for anti-androgenic activity as well as percentage inhibition in presence of 2 μM compound in comparison to non-stimulated luciferase signal. Agonistic activity was determined using the same concentration range of compound in the absence of R1881 by measuring Luciferase activity as above. EC50 was calculated for androgenic activity. Assay/read plates were used (Polystyrol; 384, NV-white cell culture plates; Perkin Elmer).
row,SMILES,EC50 [µM]
1,"COCCOc1ccc(CN2C(=S)N(c3ccc(C#N)c(C(F)(F)F)c3)C(=O)C2(C)C)cn1 [Example 11, 4-(3-{[6-(2-Methoxyethoxy)pyridin-3-yl]methyl}-4,4-dimethyl-5-oxo-2-thioxoimidazolidin-1-yl)-2-(trifluoromethyl)benzonitrile]",> 10
2,"CN1CCCN(c2ccc(CN3C(=S)N(c4ccc(C#N)c(C(F)(F)F)c4)C(=O)C3(C)C)cn2)CC1 [Example 12, 4-(4,4-Dimethyl-3-{[6-(4-methyl-1,4-diazepan-1-yl)pyridin-3-yl]methyl}-5-oxo-2-thioxoimidazolidin-1-yl)-2-(trifluoromethyl)benzonitrile]",> 10
3,"CC1(C)C(=O)N(c2ccc(C#N)c(C(F)(F)F)c2)C(=S)N1Cc1ccc(N2CCC(CO)CC2)nc1 [Example 14, 4-[3-({6-[4-(Hydroxymethyl)piperidin-1-yl]pyridin-3-yl}methyl)-4,4-dimethyl-5-oxo-2-thioxoimidazolidin-1-yl]-2-(trifluoromethyl)benzonitrile]",6
4,"Cc1ccnn1-c1ccc(CN2C(=S)N(c3ccc(C#N)c(C(F)(F)F)c3)C(=O)C2(C)C)cn1 [Example 27, 4-(4,4-Dimethyl-3-{[6-(5-methyl-1H-pyrazol-1-yl)pyridin-3-yl]methyl}-5-oxo-2-thioxoimidazolidin-1-yl)-2-(trifluoromethyl)benzonitrile]",> 10
5,"CC1(C)C(=O)N(c2ccc(C#N)c(C(F)(F)F)c2)C(=S)N1Cc1ccc(OCC(F)(F)CO)nc1 [Example 28, 4-(3-{[6-(2,2-Difluoro-3-hydroxypropoxy)pyridin-3-yl]methyl}-4,4-dimethyl-5-oxo-2-thioxoimidazolidin-1-yl)-2-(trifluoromethyl)benzonitrile]",> 10
6,"CC1(C)C(=O)N(c2ccc(C#N)c(C(F)(F)F)c2)C(=S)N1Cc1ccc(-n2ccnn2)nc1 [Example 29, 4-(4,4-Dimethyl-5-oxo-2-thioxo-3-{[6-(1H-1,2,3-triazol-1-yl)pyridin-3-yl]methyl}imidazolidin-1-yl)-2-(trifluoromethyl)benzonitrile]",> 10
7,"CC1(C)C(=O)N(c2ccc(C#N)c(C(F)(F)F)c2)C(=S)N1Cc1ccc(-n2nccn2)nc1 [Example 30, 4-(4,4-Dimethyl-5-oxo-2-thioxo-3-{[6-(2H-1,2,3-triazol-2-yl)pyridin-3-yl]methyl}imidazolidin-1-yl)-2-(trifluoromethyl)benzonitrile]",> 10
8,"CC1(C)C(=O)N(c2ccc(C#N)c(C(F)(F)F)c2)C(=S)N1Cc1ccc(-n2cnc(Cl)c2Cl)nc1 [Example 32, 4-(3-{[6-(4,5-Dichloro-1H-imidazol-1-yl)pyridin-3-yl]methyl}-4,4-dimethyl-5-oxo-2-thioxoimidazolidin-1-yl)-2-(trifluoromethyl)benzonitrile]",> 10
9,"CC1(C)C(=O)N(c2ccc(C#N)c(C(F)(F)F)c2)C(=S)N1Cc1ccc(-n2cnc(C(F)(F)F)n2)nc1 [Example 33, 4-[4,4-Dimethyl-5-oxo-2-thioxo-3-({6-[3-(trifluoromethyl)-1H-1,2,4-triazol-1-yl]pyridin-3-yl}methyl)imidazolidin-1-yl]-2-(trifluoromethyl)benzonitrile]",> 10
